{"source": "patent US20060228730A1", "about": "“Methods for identifying small molecules that bind specific RNA structural motifs” (priority 2001, published 2006)", "key": {"[1]": {"system": "Rev / IIB (or RRE) region of HIV RNA", "settings": "Zapp et al., Cell, 1993; cited from earlier work"}, "[2]": {"system": "HIV-1 TAR element TAR RNA oligonucleotide", "test": "Gel retardation analysis using automated capillary electrophoresis, Tat peptide-TAR RNA", "format": "binding", "settings": "increasing concentrations of Tat peptide (0.1-1.6 μM), TK buffer, SCE9610 apparatus, FIG. 5", "description": "FIG. 5. Gel retardation analysis to detect peptide-RNA interactions. In reactions containing increasing concentrations of Tat47-58 peptide (0.1 μM, 0.2 μM, 0.4 μM, 0.8 μM, 1.6 μM) 50 pmole TAR RNA oligonucleotide was added in TK buffer. The reaction mixture was then heated at 90° C. for 2 min and allowed to cool slowly to 24° C. The reactions were loaded onto a SCE9610 automated capillary electrophoresis apparatus (SpectruMedix; State College, Pennsylvania). The peaks correspond to the amount of free TAR RNA (“TAR”) or the Tat-TAR complex (“Tat-TAR”). The concentration of peptide added is indicated below each lane.\nTris-potassium chloride (TK) buffer is composed of 50 mM Tris-HCl pH 7.4, 20 mM KCl, 0.1% Triton X-100, and 0.5 mM MgCl2. Tris-borate-EDTA (TBE) buffer is composed of 45 mM Tris-borate pH 8.0, and 1 mM EDTA. Tris-Potassium chloride-magnesium (TKM) buffer is composed of 50 mM Tris-HCl pH 7.4, 20 mM KCl, 0.1% Triton X-100 and 5 mM MgCl2.\nRNA oligonucleotides were purchased from Dharmacon, Inc. Lafayette, Colo.). 500 pmole of a 5′ fluorescein labeled oligonucleotide corresponding to the HIV-1 TAR element TAR RNA (5′-[…]-3′ (SEQ ID NO: 30); Huq et al., 1999, Nucleic Acids Research. 27:1084-1093; Hwang et al., 1999, Proc. Natl. Acad. Sci. USA 96:12997-13002) was used. […]"}, "[3]": {"system": "HIV-1 TAR element TAR RNA oligonucleotide", "test": "Gel retardation analysis (gel mobility shift), Tat peptide-TAR RNA", "format": "binding", "settings": "Tat47-58 0.1-1.6 μM, 50 pmole TAR RNA, TK buffer, 12% non-denaturing polyacrylamide gel, FIG. 1", "description": "FIG. 1. Gel retardation analysis to detect peptide-RNA interactions. In 20 μl reactions containing increasing concentrations of Tat47.58 peptide (0.1 μM, 0.2 μM, 0.4 μM, 0.8 μM, 1.6 μM) 50 pmole TAR RNA oligonucleotide was added in TK buffer. The reaction mixture was then heated at 90° C. for 2 min and allowed to cool slowly to 24° C. […] of 30% glycerol was added to each sample and applied to a 12% non-denaturing polyacrylamide gel. The gel was electrophoresed using 1200 volt-hours at 4° C. in TBE Buffer. Following electrophoresis, the gel was dried and the radioactivity was quantitated with a phosphorimager. The concentration of peptide added is indicated above each lane.\nTris-potassium chloride (TK) buffer is composed of 50 mM Tris-HC1 pH 7.4, 20 mM KCl, 0.1%Triton X-100, and 0.5 mM MgCl2. Tris-borate-EDTA (TBE) buffer is composed of 45 mM Tris-borate pH 8.0, and 1 mM EDTA. […]\nRNA oligonucleotides were purchased from Dharmacon, Inc, Lafayette, Colo.). […] Then 10 μl of 30% glycerol was added to each reaction tube and the entire sample was loaded onto a TBE non-denaturing polyacrylamide gel and electrophoresed at 1200-1600 volt-hours at 4° C.; The gel was exposed to an intensifying screen and radioactivity was quantitated using a Typhoon phosporimager (Molecular Dynamics)."}, "[4]": {"system": "HIV TAR RNA element oligonucleotide", "test": "Gel mobility shift, specificity control with unrelated oligonucleotide", "format": "binding", "settings": "incubated with 10 μg/ml gentamicin, FIG. 3", "description": "(§1) FIG. 3. The presence of 10 pg/ml gentamicin produces a gel mobility shift in the presence of the 16S rRNA oligonucleotide. 20 μl reactions containing increasing concentrations of gentamicin (100 ng/ml, 10 ng/ml, 1 ng/ml, 100 pg/ml, and 10 pg/ml) were added to 50 pmole RNA oligonucleotide in TKM buffer were treated as described for FIG. 2.\nRNA oligonucleotides were purchased from Dharmacon, Inc, Lafayette, Colo.). 500 pmole of either a 5′ fluorescein labeled oligonucleotide corresponding to the 16S rRNA A site (5′-[…]-3′ (SEQ ID NO: 29); Moazed & Noller, 1987, Nature 327:389-394; Woodcock et al., 1991, EMBO J. 10:3099-3103; Yoshizawa et al., 1998, EMBO J. 17:6437-6448) or a 5′ fluorescein labeled oligonucleotide corresponding to the HIV-1 TAR element TAR RNA (5′-[…]-3′ (SEQ ID NO: 30); Huq et al., 1999, Nucleic Acids Research. 27:1084-1093; Hwang et al., 1999, Proc. Natl. Acad. Sci. USA 96:12997-13002) was 3′ labeled with 5-^32P cytidine 3′,5′-bis(phosphate) (NEN) and T4 RNA ligase (NEBiolabs) in 10% DMSO as per manufacturer's instructions. […] Then 10 μl of 30% glycerol was added to each reaction tube and the entire sample was loaded onto a TBE non-denaturing polyacrylamide gel and electrophoresed at 1200-1600 volt-hours at 4° C.; The gel was exposed to an intensifying screen and radioactivity was quantitated using a Typhoon phosporimager (Molecular Dynamics). […]"}, "[5]": {"system": "oligonucleotide corresponding to the 16S rRNA A site", "test": "Gel retardation analysis (gel mobility shift), gentamicin-16S rRNA", "format": "binding", "description": "FIG. 2. Gentamicin interacts with an oligonucleotide corresponding to the 16S rRNA. 20 μl reactions containing increasing concentrations of gentamicin (1 ng/ml, 10 ng/ml, 100 ng/ml, 1 μg/ml, 10 μg/ml, 50 μg/ml, 500 μg/ml) were added to 50 pmole RNA oligonucleotide in TKM buffer, heated at 90° C. for 2 min and allowed to cool slowly to 24° C. Then 10 μl of 30% glycerol was added to each sample and the samples were applied to a 13.5% non-denaturing polyacrylamide gel. The gel was electrophoresed using 1200 volt-hours at 4° C. in TBE Buffer Following electrophoresis, the gel was dried and the radioactivity was quantitated using a phosphorimager. The concentration of gentamicin added is indicated above each lane.\nas §1\nFIG. 4. Gentamicin binding to the 16S rRNA oligonucleotide is weak in the absence of MgCl2.\nTris-potassium chloride (TK) buffer is composed of 50 mM Tris-HC1 pH 7.4, 20 mM KCl, 0.1%Triton X-100, and 0.5 mM MgCl2. Tris-borate-EDTA (TBE) buffer is composed of 45 mM Tris-borate pH 8.0, and 1 mM EDTA. Tris-Potassium chloride-magnesium (TKM) buffer is composed of 50 mM Tris-HCl pH 7.4, 20 mM KCl, 0.1% Triton X-100 and 5 mM MgCl2.\nRNA oligonucleotides were purchased from Dharmacon, Inc, Lafayette, Colo.). 500 pmole of either a 5′ fluorescein labeled oligonucleotide corresponding to the 16S rRNA A site (5′-[…]-3′ (SEQ ID NO: 29); Moazed & Noller, 1987, Nature 327:389-394; Woodcock et al., 1991, EMBO J. 10:3099-3103; Yoshizawa et al., 1998, EMBO J. 17:6437-6448) or a 5′ fluorescein labeled oligonucleotide corresponding to the HIV-1 TAR element TAR RNA (5′-[…]-3′ (SEQ ID NO: 30); Huq et al., 1999, Nucleic Acids Research. 27:1084-1093; Hwang et al., 1999, Proc. Natl. Acad. Sci. USA 96:12997-13002) was 3′ labeled with 5-^32P cytidine 3′,5′-bis(phosphate) (NEN) and T4 RNA ligase (NEBiolabs) in 10% DMSO as per manufacturer's instructions. The labeled oligonucleotides were purified using G-25 Sephadex columns (Boehringer Mannheim). For Tat-TAR gel retardation reactions the method of Huq et al. (Nucleic Acids Research, 1999, 27:1084-1093) was utilized with TK buffer containing 0.5 mM MgCl2 and a 12-mer Tat peptide (YGRKKRRQRRRP (SEQ ID NO: 31); single letter amino acid code). For 16S rRNA-gentamicin reactions, the method of Huq et al. was used with TKM buffer. In 20 μl reaction volumes 50 pmoles of ^32P cytidine-labeled oligonucleotide and either gentamicin sulfate (Sigma) or the short Tat peptide (Tat47.58) in TK or TKM buffer were heated at 90° C. for 2 minutes and allow to cool to room temperature (approximately 24° C.) over 2 hours. Then 10 μl of 30% glycerol was added to each reaction tube and the entire sample was loaded onto a TBE non-denaturing polyacrylamide gel and electrophoresed at 1200-1600 volt-hours at 4° C.; The gel was exposed to an intensifying screen and radioactivity was quantitated using a Typhoon phosporimager (Molecular Dynamics)."}, "[6]": {"system": "60-mer from ribosomal RNA", "settings": "Cundliffe et al., 1990; cited from earlier work"}}, "data": [{"compound": "NC[C@@H]1O[C@H](O[C@H]2[C@@H](O)[C@H](O[C@@H]3[C@@H](O)[C@H](N)C[C@H](N)[C@H]3O[C@H]3O[C@H](CO)[C@@H](O)C[C@H]3N)O[C@@H]2CO)[C@H](N)[C@@H](O)[C@@H]1O[C@H]1O[C@H](CO)[C@@H](O)[C@H](O)[C@@H]1O", "note": "[lividomycin A]", "values": [{"measurement": "blocking of the binding of Rev to its viral recognition element in the IIB (or RRE) region of HIV RNA", "setting": "[1]", "result": "can block the binding"}]}, {"compound": "NC[C@@H]1O[C@H](O[C@H]2[C@@H](O)[C@H](O[C@@H]3[C@@H](O)[C@H](N)C[C@H](N)[C@H]3O[C@H]3O[C@H](CN)[C@@H](O)[C@H](O)[C@H]3N)O[C@@H]2CO)[C@H](N)[C@@H](O)[C@@H]1O", "note": "[neomycin B]", "values": [{"measurement": "blocking of the binding of Rev to its viral recognition element in the IIB (or RRE) region of HIV RNA", "setting": "[1]", "result": "can block the binding"}]}, {"compound": "NC[C@H]1O[C@H](O[C@H]2[C@H](O)[C@@H](O[C@H]3O[C@H](CO)[C@@H](O)[C@H](N)[C@H]3O)[C@H](N)C[C@@H]2N)[C@H](N)C[C@@H]1O", "note": "[tobramycin]", "values": [{"measurement": "blocking of the binding of Rev to its viral recognition element in the IIB (or RRE) region of HIV RNA", "setting": "[1]", "result": "can block the binding"}]}, {"compound": "YGRKKRRQRRRP [Tat47.58 peptide]", "values": [{"measurement": "shift of TAR RNA peak in automated capillary electrophoresis", "setting": "[2]", "result": "a clear shift is visible"}, {"measurement": "gel mobility shift of TAR RNA oligonucleotide in the presence of the Tat peptide", "setting": "[3]", "result": "a clear shift is visible"}]}, {"compound": "gentamicin", "values": [{"measurement": "gel mobility shift of unrelated oligonucleotide (HIV TAR RNA element)", "setting": "[4]", "result": "does not result in a gel mobility shift"}, {"measurement": "gentamicin concentration as low as which produces the mobility shift", "setting": "[5]; TKM buffer (5 mM MgCl2), FIG. 2", "result": 10, "unit": "ng/mL"}, {"measurement": "gentamicin concentration as low as which gel mobility shifts are produced", "setting": "[5]; TKM buffer, concentrations ranged from 100 ng/ml to 10 pg/ml, FIG. 3", "result": 10, "unit": "pg/mL"}, {"measurement": "gentamicin binding to the 16S rRNA oligonucleotide in the absence of MgCl2", "setting": "[5]; buffer does not contain MgCl2, FIG. 4 legend", "result": "weak"}, {"measurement": "mobility shift when gentamicin is added after renaturation has proceeded to 75° C.", "setting": "[5]; gentamicin added after the renaturation step proceeded to 75° C.", "result": "a mobility shift is not produced"}, {"measurement": "gel shift when gentamicin is added at 90° C. or 85° C.", "setting": "[5]; gentamicin present during the entire denaturation/renaturation cycle, data not shown", "result": "a gel shift is visualized"}, {"measurement": "gentamicin concentration that must be added to produce a gel shift when MgCl2 is not present", "setting": "[5]; no MgCl2 in buffer, FIG. 4", "result": 1, "unit": "mg/mL"}, {"measurement": "mobility shift of RNA oligonucleotide corresponding to the 16S rRNA A site", "setting": "[5]; varying concentrations of gentamicin (1 ng/ml-500 μg/ml), TKM buffer, 13.5% non-denaturing gel, FIG. 2", "result": "produces a mobility shift"}]}, {"compound": "thiostreptone", "values": [{"measurement": "binding to a 60-mer from ribosomal RNA", "setting": "[6]", "result": "binds tightly"}]}]}
